Here are results for 13 compounds from BindingDB's records for PubMed 1346637 (Mayo Clinic, 1992).

Experiment [1] deals with T1, Muscarinic acetylcholine receptor M2 (Homo sapiens, UniProt P08172).
T1 sequence (P08172 whole entry): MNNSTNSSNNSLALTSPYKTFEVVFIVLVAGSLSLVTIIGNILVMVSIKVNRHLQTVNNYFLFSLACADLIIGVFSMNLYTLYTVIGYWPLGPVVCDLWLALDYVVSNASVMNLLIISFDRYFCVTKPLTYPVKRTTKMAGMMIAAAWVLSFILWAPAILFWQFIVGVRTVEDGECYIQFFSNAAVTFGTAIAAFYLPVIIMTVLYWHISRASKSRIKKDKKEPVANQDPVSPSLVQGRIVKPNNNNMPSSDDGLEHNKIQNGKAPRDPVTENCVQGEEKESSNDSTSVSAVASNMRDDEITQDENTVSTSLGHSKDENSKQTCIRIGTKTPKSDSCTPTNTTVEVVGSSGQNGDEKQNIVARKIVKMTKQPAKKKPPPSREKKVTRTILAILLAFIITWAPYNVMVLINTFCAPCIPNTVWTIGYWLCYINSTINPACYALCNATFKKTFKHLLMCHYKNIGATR

Experiment [2] concerns the target T2, Muscarinic acetylcholine receptor M5 (Homo sapiens, UniProt P08912).
T2 sequence (P08912 whole entry): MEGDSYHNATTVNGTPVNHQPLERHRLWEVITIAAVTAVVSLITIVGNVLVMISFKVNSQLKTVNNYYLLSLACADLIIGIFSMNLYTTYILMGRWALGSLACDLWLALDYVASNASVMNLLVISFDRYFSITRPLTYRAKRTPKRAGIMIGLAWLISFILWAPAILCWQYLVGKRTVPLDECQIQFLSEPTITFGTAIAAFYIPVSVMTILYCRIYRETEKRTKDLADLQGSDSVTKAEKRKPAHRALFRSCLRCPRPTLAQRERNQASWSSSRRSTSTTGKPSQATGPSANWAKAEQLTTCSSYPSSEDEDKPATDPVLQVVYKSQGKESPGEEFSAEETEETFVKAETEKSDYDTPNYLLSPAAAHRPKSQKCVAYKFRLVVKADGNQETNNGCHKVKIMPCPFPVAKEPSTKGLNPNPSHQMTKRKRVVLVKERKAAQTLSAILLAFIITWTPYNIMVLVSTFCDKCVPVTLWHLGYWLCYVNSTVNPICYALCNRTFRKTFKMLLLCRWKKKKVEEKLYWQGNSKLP

For experiment [3], the target named is T3, Muscarinic acetylcholine receptor M4 (Homo sapiens, UniProt P08173).
T3 sequence (P08173 whole entry): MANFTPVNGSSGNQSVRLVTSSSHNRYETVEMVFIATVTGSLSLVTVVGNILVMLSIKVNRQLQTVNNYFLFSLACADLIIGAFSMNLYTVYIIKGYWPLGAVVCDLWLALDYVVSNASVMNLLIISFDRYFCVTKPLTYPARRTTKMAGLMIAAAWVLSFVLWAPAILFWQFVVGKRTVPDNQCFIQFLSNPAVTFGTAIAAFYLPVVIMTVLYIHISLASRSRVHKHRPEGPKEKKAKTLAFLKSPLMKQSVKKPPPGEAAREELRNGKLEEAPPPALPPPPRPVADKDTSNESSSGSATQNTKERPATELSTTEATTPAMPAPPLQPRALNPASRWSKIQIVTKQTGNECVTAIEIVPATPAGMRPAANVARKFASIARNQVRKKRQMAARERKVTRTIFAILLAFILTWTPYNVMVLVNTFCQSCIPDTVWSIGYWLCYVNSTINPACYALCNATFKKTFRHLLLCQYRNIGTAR

The structures appear in SMILES notation.

As to `CN1CCN(C2=Nc3cc(F)ccc3Cc3ccccc32)CC1`, the Ki came to 71 nM in experiment [1], 17 nM in experiment [2] and 14 nM in experiment [3].
For `CN(C)CC/C=C1\c2ccccc2Sc2ccc(Cl)cc21`, the inhibition constant Ki amounted to 25 nM in experiment [2] and 18 nM in experiment [3].
For the compound `CN1CCCCC1CCN1c2ccccc2Sc2ccc([S+](C)[O-])cc21` (centres undefined), the figures for the Ki in experiment [1], in experiment [2] and in experiment [3] were 15 nM, 60 nM and 19 nM, respectively.
Regarding `OC(CCN1CCCCC1)(c1ccccc1)C1CC2C=CC1C2` (centres undefined) [1-(bicyclo[2.2.1]hept-5-en-2-yl)-1-phenyl-3-(piperidin-1-yl)propan-1-ol], the Ki in experiment [2] came to 6.3 nM; in experiment [3], 2.4 nM.
For `OC(CCN1CCCC1)(c1ccccc1)C1CCCCC1` (centres undefined) [1-Cyclohexyl-1-phenyl-3-pyrrolidin-1-yl-propan-1-ol], in that order: 24 nM and 7 nM.
Turning to `CN(C)CCOC1=Cc2ccccc2Sc2ccc(Cl)cc21` [2-Chloro-11-(2-(dimethylamino)ethoxy)dibenzo(b,f)thiepin], the Ki in experiment [2] stood at 260 nM; in experiment [3], 77 nM.
`CN1CCN(C2=Nc3ccccc3Oc3ccc(Cl)cc32)CC1` [13-chloro-10-(4-methylpiperazin-1-yl)-2-oxa-9-azatricyclo[9.4.0.0^{3,8}]pentadeca-1(11),3,5,7,9,12,14-heptaene]: the Ki in experiment [2] was 241 nM; in experiment [3] it was 300 nM.
On to `O=C(CCCN1CCC(O)(c2ccc(Br)cc2)CC1)c1ccc(F)cc1` [BROMPERIDOL], for which the Ki in experiment [1] stood at 1800 nM; in experiment [2], 4800 nM; in experiment [3], 1700 nM.
In the case of `CC1CCN(CCCC(=O)c2ccc(F)cc2)CC1` [CAS_3575-80-2], the Ki in experiment [1] is 2400 nM; in experiment [2], over 10000 nM; in experiment [3], 4400 nM.
For the compound `CN1CCN(C2=Cc3cc(Cl)ccc3C(=CC#N)c3ccccc32)CC1` [CAS_79781-95-6], the Ki in experiment [1] was found to be 470 nM; in experiment [2] it was 1100 nM; in experiment [3] it was 1000 nM.
For `CN1CCN(CC/C=C2/c3ccccc3Sc3ccc(S(=O)(=O)N(C)C)cc32)CC1` [MLS000028463], in that order: 2100 nM, 4310 nM and 1540 nM.
With `CN1CCN(C2=Nc3cscc3C(=CC#N)c3cscc32)CC1` [NSC_3086153], the Ki came out at 62 nM in experiment [1], 660 nM in experiment [2] and 430 nM in experiment [3].
As to `O=C1CC2(CCCC2)CC(=O)N1CCCCN1CCN(c2nsc3ccccc23)CC1` [TIOSPERONE], the Ki in experiment [1] amounted to 180 nM; in experiment [2], 3900 nM; in experiment [3], 480 nM.
